Laboratory results taken from patent publication US10363257B2 (ZENITH EPIGENETICS LTD., priority 2013, dated 2019).

biological target: T1, Brd4 bromodomain 1 (BRD4(1)) (Homo sapiens, UniProt O60885); test: Inhibition of tetra-acetylated histone H4 binding to Brd4 bromodomain 1 (TR-FRET); conditions: tetra-acetylated histone H4 peptide, first bromodomain of Brd4
T1 construct: made in house; host or cells: E. coli BL21(DE3)
Method: Proteins were cloned and overexpressed with a N-terminal 6× His tag, then purified by nickel affinity followed by size exclusion chromatography. Briefly, E.coli BL21(DE3) cells were transformed with a recombinant expression vector encoding N-terminally Nickel affinity tagged bromodomains from Brd2, Brd3, Brd4. Cell cultures were incubated at 37° C. with shaking to the appropriate density and induced overnight with IPTG. The supernatant of lysed cells was loaded onto Ni-IDA column for purification. Eluted protein was pooled, concentrated and further purified by size exclusion chromatography. Fractions representing monomeric protein were pooled, concentrated, aliquoted, and frozen at −80° C. for use in subsequent experiments.
Binding of tetra-acetylated histone H4 and BET bromodomains was confirmed by a Time Resolved Fluorescence Resonance Energy Transfer (TR-FRET) method. N-terminally His-tagged bromodomains (200 nM) and biotinylated tetra-acetylated histone H4 peptide (25-50 nM, Millipore) were incubated in the presence of Europium Cryptate-labeled streptavidin (Cisbio Cat. #610SAKLB) and XL665-labeled monoclonal anti-His antibody (Cisbio Cat. #61HISXLB) in a white 96 well microtiter plate (Greiner). For inhibition assays, serially diluted test compound was added to these reactions in a 0.2% final concentration of DMSO. Final buffer concentrations were 30 mM HEPES pH 7.4, 30 mM NaCl, 0.3 mM CHAPS, 20 mM phosphate pH 7.0, 320 mM KF, 0.08% BSA). After a 2-h incubation at room temperature, the fluorescence by FRET was measured at 665 and 620 nm by a SynergyH4 plate reader (Biotek). The binding inhibitory activity was shown by a decrease in 665 nm fluorescence relative to 620 nm. IC50 values were determined from a dose response curve.

Row | IC50 [µM] | SMILES
1 | ≤ 0.3 | Cc1noc(C)c1-c1cnc2nc(NCc3cnccn3)n(Cc3ccccc3)c2c1 [compound 229, 1-benzyl-6-(3,5-dimethylisoxazol-4-yl)-N-(pyrazin-2-ylmethyl)-1H-imidazo[4,5-b]pyridin-2-amine]
2 | ≤ 0.3 | CNc1nc2ncc(-c3c(C)noc3C)cc2n1Cc1ccc(F)cc1 [compound 232, 6-(3,5-dimethylisoxazol-4-yl)-1-(4-fluorobenzyl)-N-methyl-1H-imidazo[4,5-b]pyridin-2-amine]
3 | ≤ 0.3 | Cc1noc(C)c1-c1cc([N+](=O)[O-])c2nc(NCc3ccccc3)n(Cc3ccccc3)c2c1 [compound 147, N,1-dibenzyl-6-(3,5-dimethylisoxazol-4-yl)-4-nitro-1H-benzo[d]imidazol-2-amine]
4 | ≤ 0.3 | Cc1noc(C)c1-c1cnc2nc(NCCN3CCCC3)n(Cc3ccccc3)c2c1 [compound 238, 1-benzyl-6-(3,5-dimethylisoxazol-4-yl)-N-(2-(pyrrolidin-1-yl)ethyl)-1H-imidazo[4,5-b]pyridin-2-amine]
5 | 0.3 to 3 | CC(=O)Nc1cc(-c2ccnn2C)cc2c1n(C)c(=O)n2Cc1ccccc1 [compound 204, N-(1-benzyl-3-methyl-6-(1-methyl-1H-pyrazol-5-yl)-2-oxo-2,3-dihydro-1H-benzo[d]imidazol-4-yl)acetamide]
6 | ≤ 0.3 | CNc1nc2ncc(-c3c(C)noc3C)cc2n1Cc1ccc(Cl)cc1 [compound 233, 1-(4-chlorobenzyl)-6-(3,5-dimethylisoxazol-4-yl)-N-methyl-1H-imidazo[4,5-b]pyridin-2-amine]
7 | ≤ 0.3 | Cc1noc(C)c1-c1cnc2nc(NC3CCCCC3)n(Cc3ccccc3)c2c1 [compound 234, 1-benzyl-N-cyclohexyl-6-(3,5-dimethylisoxazol-4-yl)-1H-imidazo[4,5-b]pyridin-2-amine]
8 | 0.3 to 3 | Cc1noc(C)c1-c1cc(Br)c2nc(C)n(CCOc3ccccc3)c2c1 [compound 189, 4-(4-bromo-2-methyl-1-(2-phenoxyethyl)-1H-benzo[d]imidazol-6-yl)-3,5-dimethylisoxazole]
9 | ≤ 0.3 | Cc1noc(C)c1-c1cc(N)c2[nH]c(=O)n(CC3CC3)c2c1 [compound 161, 4-amino-1-(cyclopropylmethyl)-6-(3,5-dimethylisoxazol-4-yl)-1H-benzo[d]imidazol-2(3H)-one]
10 | ≤ 0.3 | Cc1noc(C)c1-c1cnc2nc(NC3CCN(C)CC3)n(Cc3ccccc3)c2c1 [compound 235, 1-benzyl-6-(3,5-dimethylisoxazol-4-yl)-N-(1-methylpiperidin-4-yl)-1H-imidazo[4,5-b]pyridin-2-amine]
11 | 0.3 to 3 | Cc1noc(C)c1-c1cnc2[nH]c(=O)n(Cc3ccc(Cl)c(Cl)c3)c2c1 [compound 101, 1-(3,4-dichlorobenzyl)-6-(3,5-dimethylisoxazol-4-yl)-1H-imidazo[4,5-b]pyridin-2(3H)-one]
12 | ≤ 0.3 | Cc1noc(C)c1-c1cnc2nc(NCC3CCOCC3)n(Cc3ccccc3)c2c1 [compound 230, 1-benzyl-6-(3,5-dimethylisoxazol-4-yl)-N-((tetrahydro-2H-pyran-4-yl)methyl)-1H-imidazo[4,5-b]pyridin-2-amine]
13 | ≤ 0.3 | Cc1nc2ncc(-c3cnnn3C)cc2n1Cc1ccccc1 [compound 206, 1-benzyl-2-methyl-6-(1-methyl-1H-1,2,3-triazol-5-yl)-1H-imidazo[4,5-b]pyridine]
14 | ≤ 0.3 | Cc1noc(C)c1-c1cnc2nc(NC3COC3)n(Cc3ccccc3)c2c1 [compound 227, 1-benzyl-6-(3,5-dimethylisoxazol-4-yl)-N-(oxetan-3-yl)-1H-imidazo[4,5-b]pyridin-2-amine]
15 | 3 to 30 | Cc1noc(C)c1-c1ccc2[nH]cc(Nc3cccc(C#N)c3)c2n1 [Example Compound 57, 3-((5-(3,5-dimethylisoxazol-4-yl)-1H-pyrrolo[3,2-b]pyridin-3-yl)amino)benzonitrile]
16 | 0.3 to 3 | Cn1nccc1-c1ccc2c(c1)N(Cc1ccccc1)CC(=O)N2 [compound 166, 4-benzyl-6-(1-methyl-1H-pyrazol-5-yl)-3,4-dihydroquinoxalin-2(1H)-one]

Row | IC50 [µM] | SMILES
17 | ≤ 0.3 | Cc1noc(C)c1-c1cnc2nc(NC3CCC(N)CC3)n(Cc3ccccc3)c2c1 (centres unmarked) [compound 224, N1-(1-benzyl-6-(3,5-dimethylisoxazol-4-yl)-1H-imidazo[4,5-b]pyridin-2-yl)cyclohexane-1,4-diamine]
18 | ≤ 0.3 | Cc1noc(C)c1-c1cnc2nc(NCC(C)(C)O)n(Cc3ccccc3)c2c1 [compound 237, 1-((1-benzyl-6-(3,5-dimethylisoxazol-4-yl)-1H-imidazo[4,5-b]pyridin-2-yl)amino)-2-methylpropan-2-ol]
19 | ≤ 0.3 | COCCCNc1nc2ncc(-c3c(C)noc3C)cc2n1Cc1ccccc1 [compound 226, 1-benzyl-6-(3,5-dimethylisoxazol-4-yl)-N-(3-methoxypropyl)-1H-imidazo[4,5-b]pyridin-2-amine]
20 | 3 to 30 | Cc1nn(C)c(C)c1-c1cc(N)c2nc(C)n(Cc3ccccc3)c2c1 [compound 184, 1-benzyl-2-methyl-6-(1,3,5-trimethyl-1H-pyrazol-4-yl)-1H-benzo[d]imidazol-4-amine]
21 | ≤ 0.3 | Cc1noc(C)c1-c1cnc2[nH]c(=O)n(Cc3ccc(F)cc3)c2c1 [compound 228, 6-(3,5-dimethylisoxazol-4-yl)-1-(4-fluorobenzyl)-1H-imidazo[4,5-b]pyridin-2(3H)-one]
22 | 0.3 to 3 | Cc1noc(C)c1-c1cc(Br)c2nc(C)n(CCCc3ccccc3)c2c1 [compound 187, 4-(4-bromo-2-methyl-1-(3-phenylpropyl)-1H-benzo[d]imidazol-6-yl)-3,5-dimethylisoxazole]
23 | ≤ 0.3 | Cc1noc(C)c1-c1cnc2nc(NCC3CCCCC3)n(Cc3ccccc3)c2c1 [compound 225, 1-benzyl-N-(cyclohexylmethyl)-6-(3,5-dimethylisoxazol-4-yl)-1H-imidazo[4,5-b]pyridin-2-amine]
24 | 3 to 30 | Cc1noc(C)c1-c1cc(Br)c2c(c1)nc(C)n2CCCc1ccccc1 [compound 188, 4-(7-bromo-2-methyl-1-(3-phenylpropyl)-1H-benzo[d]imidazol-5-yl)-3,5-dimethylisoxazole]
25 | ≤ 0.3 | Cc1noc(C)c1-c1cc([N+](=O)[O-])c2[nH]c(=O)n([C@H](C)c3ccccc3)c2c1 [compound 240, (R)-6-(3,5-dimethylisoxazol-4-yl)-4-nitro-1-(1-phenylethyl)-1H-benzo[d]imidazol-2(3H)-one]
26 | 0.3 to 3 | Cn1nccc1-c1cnc2nc(N3CCOCC3)n(Cc3ccccc3)c2c1 [compound 175, 4-(1-benzyl-6-(1-methyl-1H-pyrazol-5-yl)-1H-imidazo[4,5-b]pyridin-2-yl)morpholine]
27 | 0.3 to 3 | COc1c(-c2c(C)noc2C)ccc2nc(C(F)(F)F)n(Cc3ccccc3)c12 [compound 241, 4-(1-benzyl-7-methoxy-2-(trifluoromethyl)-1H-benzo[d]imidazol-6-yl)-3,5-dimethylisoxazole]
28 | ≤ 0.3 | Cc1noc(C)c1-c1cnc2nc(NCCN3CCCCC3)n(Cc3ccccc3)c2c1 [compound 239, 1-benzyl-6-(3,5-dimethylisoxazol-4-yl)-N-(2-(piperidin-1-yl)ethyl)-1H-imidazo[4,5-b]pyridin-2-amine]
29 | ≤ 0.3 | Cc1noc(C)c1-c1cnc2nc(Oc3cccnc3)n(Cc3ccccc3)c2c1 [compound 236, 4-(1-benzyl-2-(pyridin-3-yloxy)-1H-imidazo[4,5-b]pyridin-6-yl)-3,5-dimethylisoxazole]
30 | ≤ 0.3 | Cc1noc(C)c1-c1cnc2nc(NCCN3CCN(C)CC3)n(Cc3ccccc3)c2c1 [compound 231, 1-benzyl-6-(3,5-dimethylisoxazol-4-yl)-N-(2-(4-methylpiperazin-1-yl)ethyl)-1H-imidazo[4,5-b]pyridin-2-amine]
31 | 0.3 to 3 | Cc1noc(C)c1-c1cc(Br)c2c(c1)nc(C)n2CCOc1ccccc1 [compound 190, 4-(7-bromo-2-methyl-1-(2-phenoxyethyl)-1H-benzo[d]imidazol-5-yl)-3,5-dimethylisoxazole]

system: human AML MV-4-11 cells; test: Inhibition of cell proliferation in MV4-11 cells (CellTiter Aqueous One); type: cell-based; conditions: 72 h
Method: MV4-11 cells: 96-well plates were seeded with 5×10^4 cells per well of exponentially growing human AML MV-4-11 (CRL-9591) cells and immediately treated with two-fold dilutions of test compounds, ranging from 30 μM to 0.2 μM. Triplicate wells were used for each concentration, as well as a media only and three DMSO control wells. The cells and compounds were incubated at 37° C., 5% CO2 for 72 h before adding 20 μL of the CellTiter Aqueous One Solution (Promega) to each well and incubating at 37° C., 5% CO2 for an additional 3-4 h. The absorbance was taken at 490 nm in a spectrophotometer and the percentage of proliferation relative to DMSO-treated cells was calculated after correction from the blank well. IC50 were calculated using the GraphPad Prism software.

Row | SMILES | Cell Proliferation activity
32 | Cc1noc(C)c1-c1cc2c(ncn2Cc2ccc(F)cc2)[n+]([O-])c1 [compound 79, 6-(3,5-dimethylisoxazol-4-yl)-1-(4-fluorobenzyl)-1H-imidazo[4,5-b]pyridine 4-oxide] | Not active

same assay, conditions: MV4-11, 72 h

Row | IC50 [µM] | SMILES
33 | 0.3 to 3 | Cc1noc(C)c1-c1cc(N)c2[nH]c(=O)n(CC3CC3)c2c1 [compound 161, 4-amino-1-(cyclopropylmethyl)-6-(3,5-dimethylisoxazol-4-yl)-1H-benzo[d]imidazol-2(3H)-one]
34 | 3 to 30 | Cc1nc2ncc(-c3cnnn3C)cc2n1Cc1ccccc1 [compound 206, 1-benzyl-2-methyl-6-(1-methyl-1H-1,2,3-triazol-5-yl)-1H-imidazo[4,5-b]pyridine]
35 | 3 to 30 | Cc1noc(C)c1-c1ccc2[nH]cc(Nc3cccc(C#N)c3)c2n1 [Example Compound 57, 3-((5-(3,5-dimethylisoxazol-4-yl)-1H-pyrrolo[3,2-b]pyridin-3-yl)amino)benzonitrile]
